Laboratory results taken from patent publication EP0081425B1, “Pharmaceutical compositions having normolipemic properties and containing compounds of the n-substituted benzenesulfonamide type” (priority 1981, dated 1983).
Where two headings read alike, the source gives them in different places.

System: hyperlipidémie provoquée par l'administration de TRITON®
Assay: Triton test: hyperlipidemia induced by i.v. TRITON W.R. in fasted rats
Type: in vivo, rats WISTAR mâles
Details: for Cholestérol total Score (par rapport au clofibrate compté pour 1) / Triglycérides Score (par rapport au clofibrate compté pour 1) / Lipides totaux Score (par rapport au clofibrate compté pour 1) / Cholestérol estérifié Score (par rapport au clofibrate compté pour 1): ratio to clofibrate of the same series; for inhibition in vivo at 250 mg/kg: Rattus norvegicus, po, blood assayed 6 h and/or 24 h later
Text: Dans une première série d'expériences, des produits ont été testés sur une hyperlipidémie provoquée par l'administration de TRITON® selon le protocole suivant.
Les essais ont été réalisés sur des groupes de cinq rats WISTAR mâles dont le poids varie de 150 à 175 g.
Pour effectuer ces essais, on provoque une hyperlipidémie chez les animaux, au moyen du produit commercialisé par la Société ROHM and HAAS sous le nom de TRITON® W. R.
On observe, sur cette hyperlipidémie, les effets obtenus par administration des substances actives selon l'invention.
Les essais sont réalisés comme suit : • les rats sont mis à jeûner pendant 18 heures, puis on administre le TRITON® W.R. par voie intraveineuse en solution aqueuse à 10 % à raison de 200 mg/kg ;
6 heures et/ou 24 heures plus tard, on effectue les dosages sur le sang de façon traditionnelle.
Dans la première colonne, on a indiqué le numéro du composé testé.
Dans la deuxième colonne, on a indiqué le nombre d'animaux qui ont été soumis au test.
Dans les quatre dernières colonnes, on a indiqué les résultats relatifs respectivement : • aux lipides totaux, • aux triglycérides, • au cholestérol total, • au cholestérol estérifié.
Dans chacune de ces colonnes, on indique : • a) le pourcentage de diminution par rapport au témoin TRITON; • b) le score par rapport au clofibrate de référence, c'est-à-dire le rapport de l'intensité de l'activité du produit testé vis-à-vis de celle,de l'activité au clofibrate comptée pour 1.

[1] = 250 mg/kg oral, given with TRITON W.R. 200 mg/kg i.v., read-out: Cholestérol estérifié % (pourcentage de diminution par rapport au témoin TRITON)
[2] = 250 mg/kg oral, given with TRITON W.R. 200 mg/kg i.v., read-out: Cholestérol total % (pourcentage de diminution par rapport au témoin TRITON)
[3] = 250 mg/kg oral, given with TRITON W.R. 200 mg/kg i.v., read-out: Triglycérides % (pourcentage de diminution par rapport au témoin TRITON)
[4] = read-out: Lipides totaux % (pourcentage de diminution par rapport au témoin TRITON), 250 mg/kg oral, given with TRITON W.R. 200 mg/kg i.v.

## COc1ccc(Cl)cc1S(=O)(=O)NCCO [Composé n° 276]
250 mg/kg oral
  Cholestérol total Score (par rapport au clofibrate compté pour 1): 0,25
  Triglycérides Score (par rapport au clofibrate compté pour 1): 0,48
[1]
  inhibition in vivo at 250 mg/kg: 0%
[2]
  inhibition in vivo at 250 mg/kg: 4.4%
[3]
  inhibition in vivo at 250 mg/kg: 24.8%

## CCC(CO)NS(=O)(=O)c1cc(Cl)ccc1OC (stereo not drawn) [Composé n° 311]
250 mg/kg oral
  Lipides totaux Score (par rapport au clofibrate compté pour 1): 0,69
[1]
  inhibition in vivo at 250 mg/kg: 0%
[2]
  inhibition in vivo at 250 mg/kg: 0%
[3]
  inhibition in vivo at 250 mg/kg: 0%
[4]
  inhibition in vivo at 250 mg/kg: 17.6%

## CCC(CO)NS(=O)(=O)c1cc(N)ccc1OC (stereo not drawn) [Composé n° 315]
250 mg/kg oral
  Cholestérol total Score (par rapport au clofibrate compté pour 1): 1,83
  Lipides totaux Score (par rapport au clofibrate compté pour 1): 3,61
  Triglycérides Score (par rapport au clofibrate compté pour 1): 0,53
[1]
  inhibition in vivo at 250 mg/kg: 0.8%
[2]
  inhibition in vivo at 250 mg/kg: 17.4%
[3]
  inhibition in vivo at 250 mg/kg: 38.1%
[4]
  inhibition in vivo at 250 mg/kg: 49.8%

## COc1ccc(Cl)cc1S(=O)(=O)NCC(C)O (stereo not drawn) [Composé n° 318]
250 mg/kg oral
  Cholestérol estérifié Score (par rapport au clofibrate compté pour 1): 0,65
  Cholestérol total Score (par rapport au clofibrate compté pour 1): 1,55
  Lipides totaux Score (par rapport au clofibrate compté pour 1): 0,77
[1]
  inhibition in vivo at 250 mg/kg: 32%
[2]
  inhibition in vivo at 250 mg/kg: 14.7%
[3]
  inhibition in vivo at 250 mg/kg: 0%
[4]
  inhibition in vivo at 250 mg/kg: 10.7%

## COc1cc(N)c(Cl)cc1S(=O)(=O)NCC(C)O (stereo not drawn) [Composé n° 323]
250 mg/kg oral
  Cholestérol estérifié Score (par rapport au clofibrate compté pour 1): 1,44
  Cholestérol total Score (par rapport au clofibrate compté pour 1): 4,26
  Lipides totaux Score (par rapport au clofibrate compté pour 1): 1,23
[1]
  inhibition in vivo at 250 mg/kg: 62.9%
[2]
  inhibition in vivo at 250 mg/kg: 39.2%
[3]
  inhibition in vivo at 250 mg/kg: 53%
[4]
  inhibition in vivo at 250 mg/kg: 55.2%

## CCC(CO)NS(=O)(=O)c1cc(Br)ccc1OC (stereo not drawn) [Composé n° 645]
250 mg/kg oral
  Cholestérol estérifié Score (par rapport au clofibrate compté pour 1): 0,50
  Cholestérol total Score (par rapport au clofibrate compté pour 1): 1,54
  Lipides totaux Score (par rapport au clofibrate compté pour 1): 3,62
  Triglycérides Score (par rapport au clofibrate compté pour 1): 1,21
[1]
  inhibition in vivo at 250 mg/kg: 19.4%
[2]
  inhibition in vivo at 250 mg/kg: 32.6%
[3]
  inhibition in vivo at 250 mg/kg: 36.8%
[4]
  inhibition in vivo at 250 mg/kg: 42.3%

## COc1cc([N+](=O)[O-])ccc1S(=O)(=O)NCCO [compound 277]
250 mg/kg oral
  Cholestérol estérifié Score (par rapport au clofibrate compté pour 1): 0,08
  Cholestérol total Score (par rapport au clofibrate compté pour 1): 0,18
  Triglycérides Score (par rapport au clofibrate compté pour 1): 0,38
[1]
  inhibition in vivo at 250 mg/kg: 2.9%
[2]
  inhibition in vivo at 250 mg/kg: 3.2%
[3]
  inhibition in vivo at 250 mg/kg: 19.7%
[4]
  inhibition in vivo at 250 mg/kg: 0%

## COc1cc(N)ccc1S(=O)(=O)NCCO [compound 278]
250 mg/kg oral
  Cholestérol estérifié Score (par rapport au clofibrate compté pour 1): 0,65
[1]
  inhibition in vivo at 250 mg/kg: 22%
[2]
  inhibition in vivo at 250 mg/kg: 0%
[3]
  inhibition in vivo at 250 mg/kg: 4.5%

## COc1ccc([N+](=O)[O-])cc1S(=O)(=O)NCCO [compound 279]
250 mg/kg oral
  Triglycérides Score (par rapport au clofibrate compté pour 1): 0,20
[1]
  inhibition in vivo at 250 mg/kg: 0%
[2]
  inhibition in vivo at 250 mg/kg: 0%
[3]
  inhibition in vivo at 250 mg/kg: 10.2%

## COc1ccc(N)cc1S(=O)(=O)NCCO [compound 280]
250 mg/kg oral
  Cholestérol estérifié Score (par rapport au clofibrate compté pour 1): 0,08
  Cholestérol total Score (par rapport au clofibrate compté pour 1): 0,11
[1]
  inhibition in vivo at 250 mg/kg: 2.9%
[2]
  inhibition in vivo at 250 mg/kg: 1.9%
[3]
  inhibition in vivo at 250 mg/kg: 0%

## COc1cc([N+](=O)[O-])c(Cl)cc1S(=O)(=O)NCCO [compound 281, chloro-5 N-(hydroxy-2 éthyl) méthoxy-2 nitro-4 benzènesulfonamide]
250 mg/kg oral
  Cholestérol estérifié Score (par rapport au clofibrate compté pour 1): 0,13
  Cholestérol total Score (par rapport au clofibrate compté pour 1): 0,75
  Lipides totaux Score (par rapport au clofibrate compté pour 1): 0,25
[1]
  inhibition in vivo at 250 mg/kg: 4.9%
[2]
  inhibition in vivo at 250 mg/kg: 13.3%
[3]
  inhibition in vivo at 250 mg/kg: 0%
[4]
  inhibition in vivo at 250 mg/kg: 11.3%
